Data on two molecules can be found in paper PMC9283466, “In silico identification of two peptides with antibacterial activity against multidrug-resistant Staphylococcus aureus” (NPJ Biofilms and Microbiomes, 2022).

In brackets after ≈: the same amount, converted by molar mass. Bridge positions count the residues as written; N and C are the ends. Peptide text beside a SMILES is read from it.

In one assay the test system is B. cereus. Briefly: microbe, parasite or virus in culture. The class given is cell-based, Bacillus cereus. As for the experimental part: To determine the antimicrobial activity of the new antimicrobial peptides, HG2 and HG4, their minimum inhibitory concentrations (MICs) were determined by broth microdilution method[51] in cation adjusted Mueller Hinton broth (MHB) following the International Organisation for Standardisation (ISO) 20776-1 standard for MIC testing using a final bacterial inoculum of 5 × 10^5 CFU/ml[52]. […] The peptides dissolved in sterile distilled water were added to bacteria culture and incubated overnight at appropriate conditions. The MICs of the peptides and comparator antibiotics were recorded after 18–24 h. The minimum bactericidal concentrations (MBCs) were also determined and were taken as the lowest concentration of the antimicrobial that prevented the growth of bacterial cells after the subculture of cells (from MIC treatment) onto antibiotic-free media.

Assay [1] in a line: Peptide-lipid interaction and insertion, lipid monolayer. As to conditions: for Speed of insertion: initial surface pressure 30+/-0.5 mN/m; for Critical pressure of insertion πc: peptide 1 µg/mL. The class given is binding. The protocol:
(§1) Peptide–lipid interaction was measured using a lipid monolayer formed at the air:water interface with total lipid extracts and pure lipids. Total lipids were extracted from overnight cultures of MRSA or human erythrocytes using the Folch extraction procedure[14],[40]. Extracted total lipids were dried, re-solubilised in chloroform:methanol (2:1, v/v) and stored at −20 °C under nitrogen. Pure prokaryotic and eukaryotic lipids used were: cardiolipin, POPC (1-palmitoyl-2-oleoyl-glycero-3-phosphocholine), POPE (1-palmitoyl-2-oleoyl-sn-glycero-3-phosphoethanolamine) and POPG (1-palmitoyl-2-oleoyl-sn-glycero-3-phospho-(1’-rac-glycerol) (Avanti Polar Lipid). LTA (Lipoteichoic acid from S. aureus) and LPS (lipopolysaccharide from E. coli) (Invitrogen, UK) were also tested. Pure lipids were reconstituted in chloroform:methanol (2:1 v/v) at 1 mg/ml and stored at −20 °C under nitrogen. For peptide–lipid interaction assay, lipid monolayers at the air:water interface were formed by spreading total lipid extract or pure lipids at the surface of 800 µl of sterile PBS using a 50 µl Hamilton’s syringe. Lipids were added until the surface pressure reached the desired value. After 5–10 min of incubation allowing the evaporation of the solvent and stabilisation of the initial surface pressure, 8 µl of HG2 or HG4 diluted in sterile PBS at 100 µg/ml were injected into the 800 µl sub-phase of PBS under the lipid monolayer (pH 7.4, volume 800 µl) using a 10 µl Hamilton’s syringe giving a final concentration of peptide of 1 µg/ml, as preliminary experiments had shown that this concentration was optimal. The variation of the surface pressure caused by peptide insertion was then continuously monitored using a fully automated microtensiometer (µTROUGH SX, Kibron Inc, Finland) until it reached equilibrium (maximal surface pressure increase is usually obtained after 15–25 min). To reflect physiological situations, the initial surface pressure was fixed at 30 ± 0.5 mN/m in some experiments as this value corresponds to a lipid packing density theoretically equivalent to that of the outer leaflet of the eukaryotic and prokaryotic cell membrane. In other experiments, the critical pressure of insertion of HG2 or HG4 in the total lipid extracts and pure lipids was measured as follows[14],[56]. Briefly, in these experiments, the initial pressure of the lipid monolayer was set up at different values (between 10 and 30 mN/m) and the variation of pressure caused by the injection of the peptide was measured. […] All experiments were carried out in a controlled atmosphere at 20 ± 1 °C and data were analyzed using the Firmware 2.5 programme (Kibron Inc.). The accuracy of the system under our experimental conditions was determined to be ±0.25 mN/m for surface pressure measurements.

Assay in assay [2]: as above
As to conditions: MRSA extract; initial surface pressure 30+/-0.5 mN/m. The class given is binding, Staphylococcus aureus. As for the experimental part:
(§2) Peptide–lipid interaction was measured using a lipid monolayer formed at the air:water interface with total lipid extracts and pure lipids. Total lipids were extracted from overnight cultures of MRSA or human erythrocytes using the Folch extraction procedure[14],[40]. Extracted total lipids were dried, re-solubilised in chloroform:methanol (2:1, v/v) and stored at −20 °C under nitrogen. […] The variation of the surface pressure caused by peptide insertion was then continuously monitored using a fully automated microtensiometer (µTROUGH SX, Kibron Inc, Finland) until it reached equilibrium (maximal surface pressure increase is usually obtained after 15–25 min). […] In other experiments, the critical pressure of insertion of HG2 or HG4 in the total lipid extracts and pure lipids was measured as follows[14],[56]. Briefly, in these experiments, the initial pressure of the lipid monolayer was set up at different values (between 10 and 30 mN/m) and the variation of pressure caused by the injection of the peptide was measured. […] All experiments were carried out in a controlled atmosphere at 20 ± 1 °C and data were analyzed using the Firmware 2.5 programme (Kibron Inc.). The accuracy of the system under our experimental conditions was determined to be ±0.25 mN/m for surface pressure measurements.

Assay in assay [3]: as above
The class given is binding, human. The following applies: Erythrocyte extract; initial surface pressure 30+/-0.5 mN/m. The protocol:
as §2

Assay in assay [4]: as above
The class given is binding, S. aureus. The following applies: LTA; for Speed of insertion: initial surface pressure 30+/-0.5 mN/m; for Critical pressure of insertion πc: peptide 1 µg/mL. As for the experimental part:
as §1

Assay in assay [5]: as above
The class given is binding, E. coli. The following applies: LPS; for Speed of insertion: initial surface pressure 30+/-0.5 mN/m; for Critical pressure of insertion πc: peptide 1 µg/mL. As for the experimental part: as §1

The test system of another assay is MRSA USA300 biofilms. Briefly: Anti-biofilm activity, 96-well biofilm model (crystal violet). The class given is cell-based, Staphylococcus aureus. As to conditions: established MRSA USA300 biofilms; for reduction in biofilm formation: sub-MIC (0.25x and 0.5 x MIC) and MIC concentrations; for biofilm reduction: supra-MIC concentrations (2x and 4x MIC). The protocol: The ability of HG2 and HG4 to disrupt established S. aureus biofilms was measured using a 96-well format as described by ref. [14]. MRSA USA300 cultures grown overnight in Brain Heart Infusion (BHI) broth was resuspended to OD600nm = 0.02 and grown without aeration at 37 °C in 96-well tissue culture plates for an additional 24 h. The planktonic cells were removed by three PBS (phosphate-buffered saline) washes. Thereafter, fresh BHI broth containing peptides HG2 or HG4 at sub- and supra-MIC concentrations (0.5, 1, 2 and 4x MIC) was added to wells containing adherent cells and incubated without shaking for another 24 h. Planktonic cells were again removed by three PBS washes. Biofilms were fixed with methanol for 20 min, stained with 0.4% (w/v) crystal violet solution for 20 min and re-solubilised with 33% (v/v) acetic acid. The optical density of re-solubilised biofilms was measured at 570 nm in a microplate spectrophotometer. The percentage biofilm reduction was calculated using the equation below: Percentagebiofilmreduction(%)=PositiveControl−ODofSample/PositiveControl−NegativeControl The plot showing anti-biofilm activity (% biofilm reduction) was generated using the ‘ggplot2’ package[53] in R (v 4.1.1)[54] with log-linear regression performed using lm() function.

Another assay relates to MRSA USA300 cells. Briefly: Serial passage / resistance assay. The class given is cell-based, Staphylococcus aureus. As to conditions: for fold increase in MIC during serial passage: sub-MIC exposure over 20 days, MRSA USA300; for resistant mutants after serial passage: sub-lethal doses over a period of 20 days. As for the experimental part:
In vitro evaluation of the potential for MRSA USA3000 cells to develop resistance to HG2 and HG4 was performed as follows. […] Cultures from the highest concentration that supported growth were diluted 1: 1000 in MHB and used to provide the inoculum for the next passage day. This process was performed for a total duration of 20 days. Any putative mutants recovered were isolated via streak dilution for three generations on MHA, prior to further characterisation.

The molecule `CC[C@H](C)[C@H](NC(=O)[C@H](CC(C)C)NC(=O)[C@H](CC(C)C)NC(=O)[C@H](CC(C)C)NC(=O)[C@H](CCCCN)NC(=O)[C@H](CCCCN)NC(=O)[C@@H](N)CCSC)C(=O)N[C@@H](CC(C)C)C(=O)N[C@@H](Cc1ccccc1)C(=O)N[C@H]1CSSC[C@@H](C(=O)N[C@@H](CCCCN)C(=O)N[C@@H](CCCCN)C(=O)N[C@@H](C)C(=O)N2CCC[C@H]2C(N)=O)NC(=O)CNC(=O)[C@H](C)NC(=O)[C@H](CC(C)C)NC(=O)[C@H](C)NC(=O)[C@H](CC(C)C)NC(=O)[C@H](C)NC(=O)[C@H](CC(C)C)NC1=O` [HG2] (H-MKKLLLILFCLALALAGCKKAP-NH2; disulfide 10-18; N-terminus assumed) had an MIC in the assay on B. cereus of 256 µg/mL (≈ 109 µM). The Speed of insertion is 4.74 mN/m/10 sec in assay [1] (Cardiolipin); 8.58 mN/m/10 sec in assay [1] (PC); 1.89 mN/m/10 sec in assay [1] (PE); 3.70 mN/m/10 sec in assay [1] (PG); 3.36 mN/m/10 sec in assay [2]; 1.13 mN/m/10 sec in assay [3]. For the same molecule, the Speed of insertion in assay [4] is on record as 0.80 mN/m/10 sec; in assay [5], 0.43 mN/m/10 sec. Moreover, the “Critical pressure of insertion πc” value came to 41.30 mN/m in assay [1] (Cardiolipin); 62.79 mN/m in assay [1] (PC); 39.49 mN/m in assay [1] (PE); 51.19 mN/m in assay [1] (PG); 47.81 mN/m in assay [4]; 36.03 mN/m in assay [5]. For the same molecule, the “reduction in biofilm formation” value in the assay on MRSA USA300 biofilms was “less than 50%”. Moreover, the biofilm reduction in the assay on MRSA USA300 biofilms is listed as not below 50%. Further, in the assay on MRSA USA300 cells, the “fold increase in MIC during serial passage” value is on record as 1–2 fold. Besides, the “resistant mutants after serial passage” value in the assay on MRSA USA300 cells is on record as “did not produce resistant mutants”.
In the assay on B. cereus, `CC[C@H](C)[C@H](NC(=O)[C@H](CC(C)C)NC(=O)[C@H](CC(C)C)NC(=O)[C@H](C)NC(=O)CNC(=O)CNC(=O)[C@@H](NC(=O)[C@@H](NC(=O)[C@H](CC(C)C)NC(=O)[C@H](C)NC(=O)[C@H](CC(C)C)NC(=O)CNC(=O)[C@H](CC(C)C)NC(=O)[C@@H](N)C(C)C)[C@@H](C)CC)C(C)C)C(=O)N[C@@H](CCCCN)C(=O)N[C@@H](CCCCN)C(=O)N[C@@H](CCCCN)C(=O)N[C@@H](CCC(N)=O)C(=O)N[C@@H](C)C(=O)N[C@@H](CCCCN)C(=O)N[C@@H](CO)C(N)=O` [HG4] (H-VLGLALIVGGALLIKKKQAKS-NH2; N-terminus and C-terminus assumed) returned an MIC of 512 µg/mL (≈ 242 µM). Further, the Speed of insertion in assay [1] (Cardiolipin) was 2.44 mN/m/10 sec; in assay [1] (PC), 0.50 mN/m/10 sec; in assay [1] (PE), 0.20 mN/m/10 sec; in assay [1] (PG), 2.48 mN/m/10 sec; in assay [2], 1.69 mN/m/10 sec; in assay [3], 1.20 mN/m/10 sec. In addition, the Speed of insertion came to 0.39 mN/m/10 sec in assay [4] and 0.31 mN/m/10 sec in assay [5]. Also, the “Critical pressure of insertion πc” value in assay [1] (Cardiolipin) is 46.49 mN/m; in assay [1] (PC), 28.8 mN/m; in assay [1] (PE), 33.9 mN/m; in assay [1] (PG), 47.55 mN/m; in assay [4] it was 40.04 mN/m; in assay [5] it was 34.08 mN/m. Besides, the “reduction in biofilm formation” value in the assay with MRSA USA300 biofilms is given as “less than 50%”. This molecule registered a biofilm reduction with MRSA USA300 biofilms not below 50%. Moreover, the “fold increase in MIC during serial passage” value in the assay on MRSA USA300 cells was 1–2 fold. The “resistant mutants after serial passage” value with MRSA USA300 cells is “did not produce resistant mutants”.
